Read-outs that look alike come from different tables or passages of the source.
Legend:
[1] = test system: TNF; experiment: TNF-producing activity (TNF titer in serum of mice, cytotoxicity assay using L929 cells); format: in vivo; conditions: 10 μg/mouse intravenously, Corynebacterium parvum-primed ICR mouse, serum at 90 minutes; titer = reciprocal of dilution showing 50% cytotoxicity
Procedure: TNF-producing activity was evaluated utilizing the following experiment system.
The first stimulating agent, 5% Corynebacterium parvum suspension (0.2 ml physiological saline solution) was intravenously administered to ICR mouse (female, 6-7 week-aged). Nine days later, the second stimulating agent, the compound of this invention was intravenously administered to the same mouse at 10 μg/mouse. In 90 minutes, 0.5-1 ml of blood was taken from the retro orbital plexus. The obtained blood was allowed to clot at room temperature for five to six hours, and centrifuged at 7200×g for five minutes to separate serum. The obtained serum was incubated at 56° C. for 30 minutes for inactivation before use in the following experiment.
TNF activity in the serum was measured with cytotoxicity assay using L929 cells. L929 cells were prepared in concentration of 6×10^4 cells/well (0.1 ml) RPMI 1640 medium containing 10% FBS and 2 μg/ml actinomycin D in 96-well plates. Serial dilution of obtained serum in RPMI 1640 medium containing 10% FBS was added to each well in the plate (0.1 ml/well). After a 48 hr incubation at 37° C., the viable cells were fixed with methanol. […] Next, absorbance at 550 nm was measured. Finally, cytotoxicity ratio (%) was calculated according to the following formula, and the reciprocal of dilution of the serum showing 50% cytotoxicity was determined for TNF titer in serum (U/ml). […]

[2] = test system: neutrophils; experiment: O2^- production stimulating activity in neutrophils; format: cell-based, C3 H/HeN mouse; conditions: Neutrophil, 1 h, read-out: Stimulation %
Procedure: O2^- Production Stimulating Activity in Neutrophils
O2^- production stimulating activity in neutrophils was evaluated utilizing the following experimental system [see J. Exp. Med., 160, 1656-1671, 1984]. To the peritoneal cavity of C3 H/HeN mouse (male, 8-9 week-aged), physiological saline containing 0.2% (w/v) casein was administered. Three hours later, peritoneal exudate cells (90% or more of which are neutrophils) were collected. These cells (1.7×10^6 cells/ml/tube) were incubated in the presence of the compound according to this invention (1 μg/ml) at 37° C. for 60 minutes. After addition of 80 μM of cytochrome C and 0.1 μM of formyl-methionyl-leucyl-phenylalanine (FMLP), the mixture was incubated in the presence of or in the absence of Superoxide dismutase (SOD) at 37° C. for 10 minutes. Then, SOD-inhibitable cytochrome C reduction was estimated from the difference between absorbances at 550 nm and 541.7 nm, and from molar absorption coefficient (16.5×10^3). O2^- production-stimulating activity was shown in Stimulation % in the following formula.
Stimulation %=(the amount of O2^- produced in the presence of compounds of the invention)/(the amount of O2^- produced in the absence of compounds of the invention)×100-100

[3] = Lethal toxicity in galactosamine-sensitized mice; format: in vivo; conditions: galactosamine-sensitized mice; intravenous, C57BL mouse, D-galactosamine/HCl 10 mg/mouse i.p.; observed to seventh day; read-out: LD50 (galactosamine load)
Procedure: (§1) Lethal Toxicity in Galactosamine-Sensitized Mice
(§2) Lethal toxicity in galactosamin-sensitized mice was evaluated by utilizing the following experiment system [see J.Biochem., 98, 395-406 pp., 1985].
(§3) To C57BL mouse (male, 7-week aged), 10 mg/mouse of D-galactosamine/HCl was intraperitoneally administered. Immediately after that, the compound of this invention was intravenously administered. After these administrations, general conditions of the mouse were observed every one hour for seven hours, and every day from the following day to the seventh day.

[4] = test system: E.coli. 589 strain; experiment: Nonspecific protective activity against bacterial infection in immunosuppressed mouse; format: in vivo; conditions: ICR mice, cyclophosphamide 200 mg/kg, E.coli 1.0×10^7 CFU/mouse i.p.
Procedure: Nonspecific Protective Activity Against Bacterial Infection in Immunosuppressed Mouse
Protective effect against bacterial infection in immunosuppressed mouse was evaluated by utilizing the following experiment system.
To a group of ten ICR mice (male, 5-week aged), cyclophosphamide (200 mg/kg) was intraperitoneally administered. Three days later, the compound of this invention was also intraperitoneally administered. Twenty four hours later, E.coli. 589 strain, was intraperitoneally inoculated at 1.0×10^7 CFU/mouse. The protective activities against infection was evaluated from survival rate (%) of mice after six days of bacterial infection.

[5] = test system: galactosamine-sensitized mice; experiment: Lethal toxicity in galactosamine-sensitized mice; format: in vivo; conditions: intravenous, C57BL mouse, D-galactosamine/HCl 10 mg/mouse i.p.; observed to seventh day; 10080 min
Procedure: as §1, §2, §3

[6] = compound 1 μg/ml, 37° C., 60 minutes, 0.1 μM FMLP, mouse peritoneal exudate cells

SMILES	the amount of the TNF in serum [1] [U/ml]	activation at 1 µg/mL [2, 6] [%]	activation at 1 µg/mL ([2]; Mus musculus) [%]	LD50 at 168 h [3] [µg/kg]	survival rate of mice after six days of infection ([4]; 0.05 mg/kg i.p.) [%]	also measured
CCCCCCCCCCCCC(CCCCCCCCCCC)CC(=O)O[C@H]1[C@H](OP(=O)(O)O)[C@@H](CO)OC(O)[C@@H]1NC(=O)C[C@H](O)CCCCCCCCCCC (mixture of isomers) [Compound 46, 2-deoxy-2-[(3R)-3-hydroxytetradecanamido]-4-O-phosphono-3-O-[(3RS)-3-undecylpentadecanoyl]-D-glucopyranose]	292354	–	–	–	–	–
CCCCCCCCCCCCCCC(CCCCCCCCCCC)CC(=O)O[C@H]1[C@H](OP(=O)(O)O)[C@@H](CO)OC(O)[C@@H]1NC(=O)C[C@H](O)CCCCCCCCCCC (mixture of isomers) [Compound 47, 2-deoxy-2-[(3R)-3-hydroxytetradecanamido]-4-O-phosphono-3-O-[(3RS)-3-undecylheptadecanoyl]-D-glucopyranose]	–	73	–	–	–	–
CCCCCCCCCCCCCCCCC(CCCCCCCCCCC)CC(=O)O[C@H]1[C@H](OP(=O)(O)O)[C@@H](CO)OC(O)[C@@H]1NC(=O)C[C@H](O)CCCCCCCCCCC (mixture of isomers) [Compound 48, 2-deoxy-2-[(3R)-3-hydroxytetradecanamido]-4-O-phosphono-3-O-[(3RS)-3-undecylnonadecanoyl]-D-glucopyranose]	–	69	–	–	–	–
CCCCCCCCCCCCCCC(CCCCCCCCCCC)CC(=O)O[C@H]1[C@H](OP(=O)(O)O)[C@@H](CO)OC[C@@H]1NC(=O)C[C@H](O)CCCCCCCCCCC (stereo partly shown) [Compound 47*]	–	–	111	11.8	–	–
CCCCCCCCCCCCCC(=O)OC(CCCCCCCCCCC)CC(=O)O[C@H]1[C@H](OP(=O)(O)O)[C@@H](CO)OC(O)[C@@H]1NC(=O)CC(O)CCCCCCCCCCC (stereo partly drawn) [GLA60, 2-deoxy-2-(3-hydroxytetradecanaymidno)-4-0-phosphorno-3-0-[(3-O-tetradecanoyl)-tetradecanoyl]-D-glucopyranose]	216809	–	71	3	43	survival rate of mice after six days of infection ([4]; 0.005 mg/kg i.p.): 33%; survival rate of mice after six days of infection ([4]; 0.5 mg/kg i.p.): 70%
CCCCCCCCCCCCCC(=O)OC(CCCCCCCCCCC)CC(=O)NC1C(OCC2OC(OP(=O)(O)O)C(NC(=O)CC(O)CCCCCCCCCCC)C(OC(=O)CC(O)CCCCCCCCCCC)C2O)OC(CO)C(OP(=O)(O)O)C1OC(=O)CC(CCCCCCCCCCC)OC(=O)CCCCCCCCCCCCC (stereo not shown) [Lipid A]	–	–	–	–	75	LD50 (galactosamine load) [5]: 0.3 µg/kg

— patent US5191072A, “Lipid A monosaccharide analogues” (priority 1989, dated 1993)
